This series in a line: Metabolism of compound [125I](1). Type of series: in vivo, mice. The protocol: 24 primary melanoma bearing mice were intravenously injected with 2.2 MBq of [^1251](1) and sacrificed 1 h, 3 h, 6 h, 24 h, 72 h and 10 days after tracer injection. To determine the metabolic stability of [^1251](1), blood, tumour, eyes, liver, kidney and urine samples were collected at each time point […]. Faeces were collected between 0-24 h and 24-48 h. Blood was immediately diluted in 5 mL of methanol/NH4OH 99.8:0.2 and centrifuged for 5 min at 3,000 rpm. Tumour, eyes, liver, kidneys and faeces were suspended in 5 mL of methanol/NH4OH 99.8:0.2, homogenized using GentleMACS™ dissociator (Miltenyi Biotec, Bergisch Gladbach, Germany) and centrifuged for 5 min at 3,000 rpm (repeated 2 times). Urines were analysed without any treatment. The extraction efficiency was determined by measuring the radioactivity of supernatants and precipitates. Supernatants were passed through a 0.22 μm Millipore filter and then concentrated to a volume between 200 and 500 μL before injection (duplicate) onto the analytical HPLC(C18 column; solvent A: H2O (0.2% NH4OH); solvent B: MeOH (0.2% NH4OH); Gradient elution: 0-5 min: 90 to 70% of A (Q=0.5 mL·min^−1); 5-30 min: 70 to 20% of A (Q=0.9 mL·min^−1); 30-32 min: 10% of A (Q=0.9 mL·min^−1)).

Setting [1] is: Feces, (grid: 3 h; faeces collected 24-48 h).
Where [2] appears, read: Feces, first value column (grid: 1 h; faeces collected 0-24 h).
Setting [3] is: Urine, 1 h after [125I](1) injection.
[4] abbreviates: Urine, 3 h after [125I](1) injection.
The mark [5] stands for this setting: Urine, 6 h after [125I](1) injection.
[6] abbreviates: Urine, 24 h after [125I](1) injection.
The mark [7] stands for this setting: Urine, 72 h after [125I](1) injection.
Setting [8] is: Blood, 1 h after [125I](1) injection.
Where [9] appears, read: Blood, 3 h after [125I](1) injection.
[10] abbreviates: Blood, 6 h after [125I](1) injection.
The mark [11] stands for this setting: Kidney, 1 h after [125I](1) injection.
Where [12] appears, read: Kidney, 3 h after [125I](1) injection.
Where [13] appears, read: Kidney, 6 h after [125I](1) injection.
[14] abbreviates: Liver, 1 h after [125I](1) injection.
[15] abbreviates: Liver, 3 h after [125I](1) injection.
The mark [16] stands for this setting: Liver, 6 h after [125I](1) injection.
[17] abbreviates: Liver, 24 h after [125I](1) injection.

Consider `O=C(O)CNC(=O)c1cnc2cc([125I])ccc2n1` [Acid [^125I]II], for which the “% of radioactivity” value is on record as 3.5 ± 0.7% under setting [1]; 3.0 ± 0.0% under setting [2]; 30.3 ± 2.4% under setting [3]; 24.0 ± 0.0% under setting [4]; 21.0 ± 0.0% under setting [5]; 6.5 ± 0.7% under setting [6]. Moreover, the “% of radioactivity” value under setting [7] stood at 0.0 ± 0.0%.

For `O=C(O)c1cnc2cc([125I])ccc2n1` [Acid [^125I]I], the “% of radioactivity” value stood at 21.5 ± 2.1% under setting [8]; 11.5 ± 0.7% under setting [9]; 11.0 ± 0.0% under setting [10]; 8.0 ± 1.4% under setting [1]; 7.5 ± 0.7% under setting [2]; 29.0 ± 1.4% under setting [11]. The “% of radioactivity” value under setting [12] is given as 34.2 ± 0.7%; the “% of radioactivity” value under setting [13] is given as 43.0 ± 1.4%; the “% of radioactivity” value under setting [3] turned out to be 17.2 ± 3.1%; the “% of radioactivity” value under setting [4] came to 20.0 ± 1.4%; the “% of radioactivity” value under setting [5] is recorded as 16.0 ± 1.4%; the “% of radioactivity” value under setting [6] is given as 3.5 ± 0.7%. Moreover, the “% of radioactivity” value under setting [7] turned out to be 0.0 ± 0.0%.

In the case of `CCNCCNC(=O)c1cnc2cc([125I])ccc2n1` [Amine [^125I]II], the “% of radioactivity” value is, setting by setting: under setting [1], 2.5 ± 0.7%; under setting [2], 6.5 ± 0.7%.

As to `NCCNC(=O)c1cnc2cc([125I])ccc2n1` [Amine [^125I]I], the “% of radioactivity” value reads like this: under setting [1], 14.0 ± 0.0%; under setting [2], 16.0 ± 0.0%; under setting [11], 18.5 ± 0.7%; under setting [12], 11.7 ± 0.7%; under setting [13], 0.0 ± 0.0%; under setting [14], 26.0 ± 0.0%. For the same compound, the “% of radioactivity” value by setting is: under setting [15], 45.5 ± 2.1%; under setting [16], 55.0 ± 2.8%; under setting [17], 70.5 ± 0.7%; under setting [3], 6.6 ± 0.6%; under setting [4], 13.0 ± 1.4%; under setting [5], 3.5 ± 4.9%. For the same compound, the “% of radioactivity” value by setting is: under setting [6], 0.0 ± 0.0%; under setting [7], 0.0 ± 0.0%.

For the compound `[125IH]` [[^125I]I^−], the “% of radioactivity” value under setting [8] was determined as 76.5 ± 0.7%; the “% of radioactivity” value under setting [9] was 88.5 ± 0.7%; the “% of radioactivity” value under setting [10] came out at 85.5 ± 4.9%; the “% of radioactivity” value (Eyes, 1 h after [125I](1) injection) was found to be 9.5 ± 0.7%; the “% of radioactivity” value (Eyes, 3 h after [125I](1) injection) is recorded as 5.5 ± 2.1%; the “% of radioactivity” value (Eyes, 6 h after [125I](1) injection) is listed as 4.0 ± 5.7%. The “% of radioactivity” value (Eyes, 24 h after [125I](1) injection) is reported as 0.0 ± 0.0%; the “% of radioactivity” value (Eyes, 72 h after [125I](1) injection) was 0.0 ± 0.0%; the “% of radioactivity” value (Eyes, 10 d after [125I](1) injection) was determined as 0.0 ± 0.0%; the “% of radioactivity” value under setting [1] was 27.0 ± 1.4%; the “% of radioactivity” value under setting [2] is reported as 8.0 ± 0.0%; the “% of radioactivity” value under setting [11] was found to be 20.5 ± 0.7%. Also, the “% of radioactivity” value is 37.2 ± 2.2% under setting [12]; 57.0 ± 1.4% under setting [13]; 20.0 ± 1.4% under setting [14]; 21.5 ± 4.9% under setting [15]; 29.5 ± 0.7% under setting [16]; 29.5 ± 0.7% under setting [17]. The “% of radioactivity” value came out at 13.0 ± 1.4% (Tumour, 1 h after [125I](1) injection); 6.5 ± 0.7% (Tumour, 3 h after [125I](1) injection); 9.0 ± 0.0% (Tumour, 6 h after [125I](1) injection); 0.0 ± 0.0% (Tumour, 24 h after [125I](1) injection); 0.0 ± 0.0% (Tumour, 72 h after [125I](1) injection); 0.0 ± 0.0% (Tumour, 10 d after [125I](1) injection). Further, the “% of radioactivity” value was determined as 25.7 ± 3.2% under setting [3]; 30.5 ± 0.7% under setting [4]; 51.0 ± 4.2% under setting [5]; 85.0 ± 1.4% under setting [6]; 99.0 ± 0.0% under setting [7].

For the origin of these results see patent publication US20150079000A1, “Labelled Quinoxaline Derivatives as Multimodal Radiopharmaceuticals and Their Precursors” (INSTITUT NATIONAL DE LA SANTET DE LA RECHERCHE MEDICALE, priority 2012, published 2015).
